Assays:
Format in all cases: in vivo
[1] = test system: pigweed (Amaranthus retroflexus); experiment: Test C pre-/postemergence greenhouse test, plant response rating 0-100
Procedure, shortened: (§1)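 Visual 0–100 control scores, taken 13 to 15 days post-application in a greenhouse, reflect treatment preemergence (seed in loam soil with sand) or postemergence (2–18 cm plants in peat moss, vermiculite medium). A dash marks no result.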

[2] = test system: johnsongrass (Sorghum halepense); experiment: as above
Procedure, shortened: as §1

[3] = test system: soybean (Glycine max); experiment: as above
Procedure, shortened: as §1

[4] = test system: giant foxtail (Setaria faberii); experiment: as above
Procedure, shortened: as §1

[5] = test system: winter wheat (Triticum aestivum); experiment: as above
Procedure, shortened: as §1

[6] = test system: morningglory (Ipomoea coccinea); experiment: as above
Procedure, shortened: as §1

[7] = test system: lambsquarters (Chenopodium album); experiment: as above
Procedure, shortened: as §1

[8] = test system: velvetleaf (Abutilon theophrasti); experiment: as above
Procedure, shortened: as §1

[9] = test system: corn (Zea mays); experiment: as above
Procedure, shortened: as §1

[10] = test system: blackgrass (Alopecurus myosuroides); experiment: as above;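 further: 0 is no effect and 100 is complete control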
Procedure, shortened: as §1

[11] = test system: wild oat (Avena fatua); experiment: Test C postemergence greenhouse test, plant response rating 0-100; conditions: for Plant response rating, Oat, Wild: scale 0 to 100
Procedure, shortened: (§2)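 Potted in peat/vermiculite mix; postemergence application at 1–4 leaves (2–18 cm); greenhouse 13–15 d; visual score 0–100 relative to untreated plants; dash = no test result.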

[12] = test system: chickweed (common chickweed, Stellaria media); experiment: as above; conditions: for Plant response rating, Chickweed: scale 0 to 100
Procedure, shortened: as §2

[13] = test system: kochia (Kochia scoparia); experiment: as above; conditions: for Plant response rating, Kochia: scale 0 to 100
Procedure, shortened: as §2

[14] = Postemergence, 250 g ai/ha, scale 0 to 100
[15] = Postemergence, 500 g ai/ha, scale 0 to 100

`O=Cn1cc(C(=O)c2ccccc2)c(-c2cc(Cl)cc(Cl)c2)n1` [Compound 28] was tested, and the “Plant response rating (0 to 100), Pigweed” value ([1]; Postemergence, 62 g ai/ha) was 90, the “Plant response rating (0 to 100), Pigweed” value ([1]; Postemergence, 125 g ai/ha) was 98 and the “Plant response rating, Pigweed” value [1, 14] was 98. For the same molecule, the “Plant response rating, Pigweed” value [1, 15] was 100, the “Plant response rating, Pigweed” value ([1]; Preemergence, 62 g ai/ha) was 100 and the “Plant response rating, Pigweed” value ([1]; Preemergence, 125 g ai/ha) was 100. The “Plant response rating, Pigweed” value ([1]; Preemergence, 250 g ai/ha) was 100, the “Plant response rating, Pigweed” value ([1]; Preemergence, 500 g ai/ha) was 100 and the “Plant response rating (0 to 100), Johnsongrass” value ([2]; Postemergence, 62 g ai/ha) was 0. The “Plant response rating (0 to 100), Johnsongrass” value ([2]; Postemergence, 125 g ai/ha) was 0, the “Plant response rating, Johnsongrass” value [2, 14] was 0 and the “Plant response rating, Johnsongrass” value [2, 15] was 0. The “Plant response rating, Johnsongrass” value ([2]; Preemergence, 62 g ai/ha) was 0, the “Plant response rating, Johnsongrass” value ([2]; Preemergence, 125 g ai/ha) was 0 and the “Plant response rating, Johnsongrass” value ([2]; Preemergence, 250 g ai/ha) was 0. For the same molecule, the “Plant response rating, Johnsongrass” value ([2]; Preemergence, 500 g ai/ha) was 0, the “Plant response rating (0 to 100), Soybean” value ([3]; Postemergence, 62 g ai/ha) was 0 and the “Plant response rating (0 to 100), Soybean” value ([3]; Postemergence, 125 g ai/ha) was 0. For the same molecule, the “Plant response rating, Soybean” value [3, 14] was 5, the “Plant response rating, Soybean” value [3, 15] was 5 and the “Plant response rating, Soybean” value ([3]; Preemergence, 62 g ai/ha) was 0. For the same molecule, the “Plant response rating, Soybean” value ([3]; Preemergence, 125 g ai/ha) was 0, the “Plant response rating, Soybean” value ([3]; Preemergence, 250 g ai/ha) was 0 and the “Plant response rating, Soybean” value ([3]; Preemergence, 500 g ai/ha) was 0. For the same molecule, the “Plant response rating (0 to 100), Foxtail, Giant” value ([4]; Postemergence, 62 g ai/ha) was 0, the “Plant response rating (0 to 100), Foxtail, Giant” value ([4]; Postemergence, 125 g ai/ha) was 5 and the “Plant response rating, Foxtail, Giant” value [4, 14] was 0. For the same molecule, the “Plant response rating, Foxtail, Giant” value [4, 15] was 0, the “Plant response rating, Foxtail, Giant” value ([4]; Preemergence, 62 g ai/ha) was 0 and the “Plant response rating, Foxtail, Giant” value ([4]; Preemergence, 125 g ai/ha) was 0. The “Plant response rating, Foxtail, Giant” value ([4]; Preemergence, 250 g ai/ha) was 10, the “Plant response rating, Foxtail, Giant” value ([4]; Preemergence, 500 g ai/ha) was 10 and the “Plant response rating (0 to 100), Wheat” value ([5]; Postemergence, 62 g ai/ha) was 0. The “Plant response rating (0 to 100), Wheat” value ([5]; Postemergence, 125 g ai/ha) was 0, the “Plant response rating, Wheat” value [5, 14] was 0 and the “Plant response rating, Wheat” value [5, 15] was 0. For the same molecule, the “Plant response rating, Wheat” value ([5]; Preemergence, 62 g ai/ha) was 0, the “Plant response rating, Wheat” value ([5]; Preemergence, 125 g ai/ha) was 0 and the “Plant response rating, Wheat” value ([5]; Preemergence, 250 g ai/ha) was 0. For the same molecule, the “Plant response rating, Wheat” value ([5]; Preemergence, 500 g ai/ha) was 0, the “Plant response rating (0 to 100), Morningglory” value ([6]; Postemergence, 62 g ai/ha) was 0 and the “Plant response rating (0 to 100), Morningglory” value ([6]; Postemergence, 125 g ai/ha) was 0. The “Plant response rating, Morningglory” value [6, 14] was 0, the “Plant response rating, Morningglory” value [6, 15] was 0 and the “Plant response rating, Morningglory” value ([6]; Preemergence, 62 g ai/ha) was 0. For the same molecule, the “Plant response rating, Morningglory” value ([6]; Preemergence, 125 g ai/ha) was 0, the “Plant response rating, Morningglory” value ([6]; Preemergence, 250 g ai/ha) was 0 and the “Plant response rating, Morningglory” value ([6]; Preemergence, 500 g ai/ha) was 0. For the same molecule, the “Plant response rating (0 to 100), Lambsquarters” value ([7]; Postemergence, 62 g ai/ha) was 90, the “Plant response rating (0 to 100), Lambsquarters” value ([7]; Postemergence, 125 g ai/ha) was 90 and the “Plant response rating, Lambsquarters” value [7, 14] was 98. For the same molecule, the “Plant response rating, Lambsquarters” value [7, 15] was 98, the “Plant response rating, Lambsquarters” value ([7]; Preemergence, 62 g ai/ha) was 100 and the “Plant response rating, Lambsquarters” value ([7]; Preemergence, 125 g ai/ha) was 100. The “Plant response rating, Lambsquarters” value ([7]; Preemergence, 250 g ai/ha) was 100, the “Plant response rating, Lambsquarters” value ([7]; Preemergence, 500 g ai/ha) was 100 and the “Plant response rating (0 to 100), Velvetleaf” value ([8]; Postemergence, 62 g ai/ha) was 80. For the same molecule, the “Plant response rating (0 to 100), Velvetleaf” value ([8]; Postemergence, 125 g ai/ha) was 80, the “Plant response rating, Velvetleaf” value [8, 14] was 85 and the “Plant response rating, Velvetleaf” value [8, 15] was 85. The “Plant response rating, Velvetleaf” value ([8]; Preemergence, 62 g ai/ha) was 65, the “Plant response rating, Velvetleaf” value ([8]; Preemergence, 125 g ai/ha) was 90 and the “Plant response rating, Velvetleaf” value ([8]; Preemergence, 250 g ai/ha) was 98. For the same molecule, the “Plant response rating, Velvetleaf” value ([8]; Preemergence, 500 g ai/ha) was 98, the “Plant response rating (0 to 100), Corn” value ([9]; Postemergence, 62 g ai/ha) was 0 and the “Plant response rating (0 to 100), Corn” value ([9]; Postemergence, 125 g ai/ha) was 0. The “Plant response rating, Corn” value [9, 14] was 0, the “Plant response rating, Corn” value [9, 15] was 0 and the “Plant response rating, Corn” value ([9]; Preemergence, 62 g ai/ha) was 0. The “Plant response rating, Corn” value ([9]; Preemergence, 125 g ai/ha) was 0, the “Plant response rating, Corn” value ([9]; Preemergence, 250 g ai/ha) was 0 and the “Plant response rating, Corn” value ([9]; Preemergence, 500 g ai/ha) was 0. For the same molecule, the “Plant response rating (0 to 100), Blackgrass” value ([10]; Postemergence, 62 g ai/ha) was 0, the “Plant response rating, Blackgrass” value ([10]; Postemergence, 125 g ai/ha, scale 0 to 100) was 0 and the “Plant response rating, Blackgrass” value [10, 14] was 0. For the same molecule, the “Plant response rating, Blackgrass” value [10, 15] was 0, the “Plant response rating, Blackgrass” value ([10]; Preemergence, 62 g ai/ha) was 0 and the “Plant response rating, Blackgrass” value ([10]; Preemergence, 125 g ai/ha) was 0. The “Plant response rating, Blackgrass” value ([10]; Preemergence, 250 g ai/ha) was 5, the “Plant response rating, Blackgrass” value ([10]; Preemergence, 500 g ai/ha) was 5 and the “Plant response rating (0 to 100), Oat, Wild” value ([11]; 62 g ai/ha) was 0. The “Plant response rating (0 to 100), Oat, Wild” value ([11]; 125 g ai/ha) was 0, the “Plant response rating, Oat, Wild” value ([11]; 250 g ai/ha) was 0 and the “Plant response rating, Oat, Wild” value ([11]; 500 g ai/ha) was 0. For the same molecule, the “Plant response rating (0 to 100), Chickweed” value ([12]; 62 g ai/ha) was 95, the “Plant response rating (0 to 100), Chickweed” value ([12]; 125 g ai/ha) was 95 and the “Plant response rating, Chickweed” value ([12]; 250 g ai/ha) was 100. For the same molecule, the “Plant response rating, Chickweed” value ([12]; 500 g ai/ha) was 98, the “Plant response rating (0 to 100), Kochia” value ([13]; 62 g ai/ha) was 80 and the “Plant response rating (0 to 100), Kochia” value ([13]; 125 g ai/ha) was 85. For the same molecule, the “Plant response rating, Kochia” value ([13]; 250 g ai/ha) was 85 and the “Plant response rating, Kochia” value ([13]; 500 g ai/ha) was 90.
